Structures can show the parent of a compound that is named as a salt. Where two headings read alike, the source gives them in different places.
Legend:
[1] = tested on: Human promyeloid leukemia HL-60 cells; experiment: Cytotoxicity Assays Method B (MTT proliferation assay), HL-60; assay type: cell-based; details: Homo sapiens, read-out: IC50 (concentration at which 50% of the cells are inhibited from growing)
Method: Cytotoxicity Assays Method B (HL-60) [H. M. Chen et al. Chin. Pharm. J. 53, 157-167 (2001)]
Human promyeloid leukemia HL-60 cells were obtained from the American Type
Culture Collection (Manassas, Va., USA) and the Culture Collection and Research Center(CCRC) (Tai wan, ROC). Human promyeloid leukemia HL-60 cells were cultured in suspension in RPMI-1640 medium (GIBCO, Grand Is land, USA), containing 10% fetal bovine se rum (GIBCO, Grand Is land, USA), 100 unit/mL penicillin, […] streptomycin and 1% L-glutamine at 37° C. in a humidified atmosphere of 5% CO2 in air. Cells were split every day to maintain the cell numbers between 2−5×10^5/mL. Cell numbers were assessed by the standard procedure of leukocyte counting using a hemocytometer and cell viability was checked by the ability of cells to exclude Trypan blue.
Cellular proliferation was determined by the MTT [3-(4,5-dimethylthiazol-2-yl)-2,5-diphenyltetrazolium bromide] as say. Briefly, […] of MTT (5 mg/mL) was added to each well of 96-well plates containing 1×10^5 cells after treatment with different concentrations of samples for 4 days. The reaction was stopped after 2 h by adding […] of 0.04 N HCl in isopropanol and the OD570 nm was determined by a minicolorimetric reader. Each concentration treatment was performed in triplicate.

[2] = tested on: epidermoid carcinoma of the nasopharynx (KB); experiment: Cytotoxicity Assays Method C, KB; assay type: cell-based; details: read-out: IC50 KB
[3] = tested on: p-gp-expressing epidermoid carcinoma of the nasopharynx (KB-VIN); experiment: Cytotoxicity Assays Method C, KB-VIN; assay type: cell-based; details: for IC50: 50% reduction in cell number after 72 hr of incubation
Text: Cytotoxicity Assays Method C (KB, KB-VIN, AS49, HCT-8, PC-3) [K. H. Lee et. al. Planta Med. 54, 308-312 (1998), Monk A et. al. J. Natl. Cancer Inst. 83, 757-766 (1991).] The cell lines included epidermoid caninoma of the nasopharynx (KB), p-gp-expressing epidermoid caninoma of the nasopharynx (KB-VIN), lung carcinoma (A-549), ileocecal carinoma (HCT-8) and prostate cancer (PC-3) cell lines.

[4] = tested on: lung carcinoma (A-549); experiment: Cytotoxicity Assays Method C, A-549; assay type: cell-based; details: read-out: IC50 A549
[5] = tested on: ileocecal carcinoma (HCT-8); experiment: Cytotoxicity Assays Method C, HCT-8; assay type: cell-based; details: read-out: IC50 HCT-8
[6] = tested on: prostate cancer (PC-3); experiment: Cytotoxicity Assays Method C, PC-3; assay type: cell-based; details: for IC50: read-out: IC50 PC-3
[7] = Water solubility; assay type: physicochemical; details: in H2O; for solubility: water
[8] = 72 h, KB, 50% reduction in cell number after 72 hr of incubation
[9] = Homo sapiens, A549, 72 h, A549, 50% reduction in cell number after 72 hr of incubation
[10] = Homo sapiens, HCT-8, 72 h, HCT-8, 50% reduction in cell number after 72 hr of incubation
[11] = 72 h, PC-3, 50% reduction in cell number after 72 hr of incubation
[12] = A549, 50% reduction in cell number after 72 hr of incubation
[13] = KB, 50% reduction in cell number after 72 hr of incubation
[14] = HCT-8, 50% reduction in cell number after 72 hr of incubation
[15] = PC-3, 50% reduction in cell number after 72 hr of incubation

Row | solubility [7] [µg/mL] | Structure (SMILES) | IC50 [3] [nM] | IC50 [2, 8] [nM] | IC50 [4, 9] [nM] | IC50 [5, 10] [nM] | IC50 [6, 11] [nM] | IC50 [4, 12] [nM] | other results
1 | – | CC(OC(=O)CCCC(=O)O)c1cc2c(s1)C(=O)c1sccc1C2=O (stereo not drawn) [IIb-2, Mono-[1-(4,8-dioxo-4,8-dihydrobenzo[1,2-b:5,4-b′]dithiophen-2-yl)-ethyl]pentanedioate] | 50 | – | – | – | – | – | IC50 ([1]; HL-60, 96 h): 250 nM; IC50 ([2]; 72 h): 30 nM; activity against the MDR cell line KB-VIN (in words) ([3]; summary of Table 3): potent activity; IC50 ([4]; Homo sapiens, A549, 72 h): 110 nM; IC50 ([5]; Homo sapiens, HCT-8, 72 h): 190 nM; IC50 ([6]; 72 h): 60 nM; activity against the androgen-insensitive prostate cancer cell line PC-3 (in words) ([6]; PC-3, summary of Table 3): potent activity
2 | – | O=C(O)COCc1cc2c(s1)C(=O)c1sccc1C2=O [IVa, 4,8-dioxo-4,8-dihydroxybenzo[1,2-b:5,4-b′]-dithiophen-2-yl-methoxy acetic acid] | – | 3610 | 2460 | 2070 | 1050 | – | IC50 ([3]; Homo sapiens, KBVIN, 72 h): 2460 nM
3 | ≥ 3200 | C[C@H](NC(=O)c1cc2c(s1)C(=O)c1ccsc1C2=O)C(=O)[O-].[Na+] [XVI-Na] | – | 1760 | 540 | 510 | 170 | – | IC50 ([3]; Homo sapiens, KBVIN, 72 h): 540 nM
4 | ≥ 3200 | CC(OCC(=O)[O-])c1cc2c(s1)C(=O)c1sccc1C2=O.[Na+] (stereo not drawn) [IVb-Na, Sodium 1-(4,8-dioxo-4,8-dihydroxybenzo[1,2-b:5,4b′]-dithiophen-2-yl-ethoxy)-acetate] | – | – | – | – | – | – | –
5 | – | O=C(O)c1cc2c(s1)C(=O)c1ccsc1C2=O [XIV, 4,8-dioxo-4,8-dihydrobenzo-[1,2-b;4,5-b′]dithiophene-2-carboxylic acid] | – | 38300 | – | 44100 | 25300 | 44400 | IC50 ([3]; Homo sapiens, KBVIN, 72 h): 38300 nM
6 | ≥ 6600 | C[C@H](NC(=O)c1cc2c(s1)C(=O)c1sccc1C2=O)C(=O)[O-].[Na+] [XIII-Na, Sodium (L)-2-{(4,8-dioxo-4,8-dihydrobenzo-[1,2-b;5,4-b′]dithiophene-2-carbonyl)-amino}-propionate] | – | – | – | – | – | – | –
7 | – | C[C@H](NC(=O)c1cc2c(s1)C(=O)c1ccsc1C2=O)C(=O)O [XVI, (L)-2-{(4,8-Dioxo-4,8-dihydrobenzo-[1,2-b;4,5-b′]dithiophene-2-carbonyl)-amino}-propionic acid] | – | – | – | – | – | – | IC50 ([1]; 96 h, HL-60, MTT, treatment for 4 days): 750 nM
8 | ≥ 10000 | O=C(O)c1cc2c(s1)C(=O)c1sccc1C2=O [XI-NH4, Ammonium 4,8-dioxo-4,8-dihydrobenzo-[1,2-b:5,4-b′]dithiophene-2-carboxylate] | 36000 | – | – | – | – | > 70000 | IC50 [2, 13]: 36000 nM; IC50 [5, 14]: > 70000 nM; IC50 [6, 15]: > 70000 nM
9 | ≥ 6000 | CC(OCC(=O)[O-])c1cc2c(s1)C(=O)c1ccsc1C2=O.[Na+] (stereo not drawn) [IX-Na, Sodium 1-(4,8-dioxo-4,8-dihydroxybenzo[1,2-b:4,5-b′]-dithiophen-2-yl-ethoxy)-acetate] | 1000 | – | – | – | – | 260 | IC50 [2, 13]: 1110 nM; IC50 [5, 14]: 220 nM; IC50 [6, 15]: 140 nM
10 | ≥ 10000 | O=C([O][Na+])c1cc2c(s1)C(=O)c1sccc1C2=O [XI-Na, Sodium 4,8-dioxo-4,8-dihydrobenzo-[1,2-b:5,4-b′]dithiophene-2 carboxylate] | – | – | – | – | – | – | –
11 | – | CC(O)c1cc2c(s1)C(=O)c1sccc1C2=O (stereo not drawn) [Compound 1b, reference compound] | – | – | – | – | – | – | Solubility (water solubility) [7]: 9.6 × 10^−3 mg/1 mL H2O
12 | – | O=C(O)c1cc2c(s1)C(=O)c1sccc1C2=O [XI, 4,8-dioxo-4,8-dihydrobenzo-[1,2-b;5,4-b′]dithiophene-2-carboxylic acid] | – | 38300 | – | 37200 | – | 30300 | IC50 ([3]; Homo sapiens, KBVIN, 72 h): 38300 nM; IC50 [6, 15]: 13400 nM
13 | – | COc1cc([C@@H]2c3cc4c(cc3[C@@H](O[C@@H]3O[C@@H]5CO[C@@H](C)O[C@H]5[C@H](O)[C@H]3O)[C@H]3COC(=O)[C@H]23)OCO4)cc(OC)c1O [VP-16, reference compound] | > 10000 | – | – | – | – | 1360 | IC50 [2, 13]: 4760 nM
14 | – | CC[C@]1(O)C[C@H]2CN(CCc3c([nH]c4ccccc34)[C@@](C(=O)OC)(c3cc4c(cc3OC)N(C=O)[C@H]3[C@@](O)(C(=O)OC)[C@H](OC(C)=O)[C@]5(CC)C=CCN6CC[C@]43[C@@H]65)C2)C1 [VCR, reference compound] | 5330 | – | – | – | – | 40 | IC50 [2, 13]: 10 nM
15 | 4000 | O=C(O)c1cc2c(s1)C(=O)c1ccsc1C2=O [XIV-NH4, Ammonium 4,8-dioxo-4,8-dihydrobenzo-[1,2-b;4,5-b′]dithiophene-2-carboxylate] | 36000 | – | – | – | – | 16200 | IC50 [2, 13]: 36000 nM; IC50 [5, 14]: 26300 nM; IC50 [6, 15]: 13300 nM
16 | ≥ 9600 | O=C([O-])COCc1cc2c(s1)C(=O)c1sccc1C2=O.[Na+] [IVa-Na, Sodium 4,8-dioxo-4,8-dihydroxybenzo[1,2-b:5,4-b′]-dithiophen-2-yl-methoxy acetate] | – | – | – | – | – | – | –
17 | – | COc1cccc2c1C(=O)c1c(O)c3c(c(O)c1C2=O)C[C@@](O)(C(=O)CO)C[C@@H]3O[C@H]1C[C@H](N)[C@H](O)[C@H](C)O1 [Doxorubincin, reference compound] | 4970 | – | – | – | – | 180 | IC50 [2, 13]: 180 nM
18 | ≥ 2000 | CN(C)CCNC(=O)c1cc2c(s1)C(=O)c1sccc1C2=O [XVII-H3PO4, 4,8dioxo-4,8-dihydrobenzo[1,2-b;5,4-b′]dithiophene-2-carboxylate-(2-dimethyl-aminoethyl)-amide phosphoric acid salt] | – | – | – | – | – | – | –

Row | Structure (SMILES) | solubility [7] [µg/mL] | IC50 [3] [nM] | IC50 [2, 8] [nM] | IC50 [4, 9] [nM] | IC50 [5, 10] [nM] | IC50 [6, 11] [nM] | IC50 [4, 12] [nM] | other results
19 | O=C([O-])CCCC(=O)OCc1cc2c(s1)C(=O)c1sccc1C2=O.[Na+] [IIa-2-Na, Sodium mono-[1-(4,8-dioxo-4,8-dihydrobenzo[1,2-b:5,4-b′]dithiophen-2-yl)methyl]pentanedioate] | ≥ 1800 | 1310 | 1720 | 940 | 650 | 890 | – | –
20 | O=C([O-])CCC(=O)OCc1cc2c(s1)C(=O)c1sccc1C2=O.[Na+] [IIa-1-Na, Sodium mono-[1-(4,8-dioxo-4,8-dihydrobenzo[1,2-b:5,4-b′]dithiophen-2-yl)-methyl]succinate] | ≥ 10000 | 3790 | 2090 | 3790 | 3250 | 1220 | – | –
21 | CC(OC(=O)CCCC(=O)[O-])c1cc2c(s1)C(=O)c1sccc1C2=O.[Na+] (stereo not drawn) [IIb-2-Na, Sodium mono-[1-(4,8-dioxo-4,8-dihydroxybenzo[1,2-b;5,4-b′]dithiophen-2-yl)-ethyl]pentanedioate] | ≥ 9600 | 1130 | 1360 | 1890 | 1890 | 880 | – | –
22 | CC(OC(=O)CCC(=O)[O-])c1cc2c(s1)C(=O)c1ccsc1C2=O.[Na+] (stereo not drawn) [VII-1-Na, Sodium mono-[1-(4,8-dioxo-4,8-dihydroxybenzo-[1,2-b;4,5-b′]dithiophen-2-yl)-ethyl]succinate] | ≥ 10000 | 1960 | 2140 | 2220 | 1440 | 730 | – | –
23 | CC(OC(=O)CCC(=O)[O-])c1cc2c(s1)C(=O)c1sccc1C2=O.[Na+] (stereo not drawn) [IIb-1-Na, Sodium mono-[1-(4,8-dioxo-4,8-dihydroxybenzo-[1,2-b;5,4-b′]dithiophen-2-yl)-ethyl]succinate] | ≥ 3000 | 470 | 550 | 470 | 1830 | 370 | – | –
24 | CC(OC(=O)CCCC(=O)[O-])c1cc2c(s1)C(=O)c1ccsc1C2=O.[Na+] (stereo not drawn) [VII-2-Na, Sodium mono-[1-(4,8-dioxo-4,8-dihydroxybenzo[1,2-b;4,5-b′]dithiophen-2-yl)-ethyl]pentanedioate] | ≥ 3400 | 680 | 450 | 2520 | 880 | 100 | – | –
